Data from patent publication US20200208128A1, “METHODS OF TREATING LIVER DISEASES” (CAMP4 THERAPEUTICS CORPORATION, priority 2017, published 2020).
“Also recorded” adds a separate entry of the source.

How the values were obtained:
PNPLA3 [1] = assay: qRT-PCR validation of PNPLA3 expression in primary human hepatocytes; assay type: cell-based
Experimental: Cryopreserved hepatocytes were cultured in plating media for 16 hours, transferred to maintenance media for 4 hours. Cultured on serum-free media for 2 hours, then a compound was added. The hepatocytes were maintained on the serum-free media for 16 hours prior to gene expression analysis. Primary Human Hepatocytes were stored in the vapor phase of a liquid nitrogen freezer (about −130° C.).
(§5) Human hepatocytes cultured as described above were plated in 24-well format, adding 375,000 cells per well in a volume of 500 ul plating medium. Four hours before treatment, cells were washed with PBS and the medium was changed to either: fresh maintenance medium (complete) or modified maintenance medium.
Compound stocks were prepared at 1000× final concentration and added in a 2-step dilution to the medium to reduce risk of a compound precipitating out of solution when added to the cells, and to ensure reasonable pipetting volumes. One at a time, each compound was first diluted 10-fold in warm (about 37° C.) modified maintenance medium (initial dilution=ID), mixed by vortexing, and the ID was diluted 100-fold into the cell culture (e.g. 5.1 μl into 1 well of a 24-well plate containing 0.5 mL medium). The plate was mixed by carefully swirling and after all wells were treated and returned to the incubator overnight. If desired, separate plates/wells were treated with vehicle-only controls and/or positive controls. If using multi-well plates, controls were included on each plate.
Samples were amplified using the following Taqman probes from ThermoFisher for each target: Hs01552217_m1 (human PNPLA3).
Analysis of the fold changes in expression as measured by qRT-PCR were performed using the technique below. The control was DMSO, and the treatment was the selected compound (CPD). The internal control was GAPDH or B-Actin (or otherwise indicated), and the gene of interest is the target. First, the averages of the 4 conditions were calculated for normalization: DMSO:GAPDH, DMSO:Target, CPD: GAPDH, and CPD:Target. Next, the ΔCT of both control and treatment were calculated to normalize to internal control (GAPDH) using (DMSO:Target)−(DMSO:GAPDH)=ΔCT control and (CPD:Target)−(CPD: GAPDH)=ΔCT experimental. Then, the ΔΔCT was calculated by ΔCT experimental−ΔCT control. The Expression Fold Change (or Relative Quantification, abbreviated as RQ) was calculated by 2−(ΔΔCT) (2-fold expression change was shown by RNA-Seq results provided herein).
Candidate compounds were subjected to validation with qRT-PCR in human hepatocytes. qRT-PCR was performed on samples of primary human hepatocytes from a second donor treated with the candidate compounds. Compounds were tested at concentrations ranging from 0.01 μM to 50 μM, with the majority tested at 10 μM.

COL1A1 [2] = assay: qRT-PCR of COL1A1 mRNA in hepatic stellate cells; assay type: cell-based, human; details: for Relative COLIA1 mRNA levels RQ: four technical replicates; for Effect on COL1A1 expression in stellate cells: serial dilutions; for Relative COL1A1 mRNA levels RQ: fold change vs DMSO
Experimental: (§1) Human Primary Stellate cells (HSC) (ScienceCell Cat #5300) were originally isolated from the liver of a donor. Cells were plated in Stellate Cell Medium (SteCM) (ScienCell Cat #5301) on black clear bottom plates (GREINER BIO-ONE:82050-730) coated with 2 μg/cm^2 PolyLLysine (PLL) (ScienceCell Cat #0413). Cells were plated at a density of 17000 cells/well in a 96-well plate and allowed to adhere overnight. The following day cell culture media was replenished with the indicated concentration(s) of compound for 18 hours. […] Medium was removed after 18 hours and cells were processed for further analysis, e.g. qRT-PCR.
(§2) In some examples, RQ Min and RQ Max values are also reported. RQ Min and RQ Max are the minimum and maximum relative levels of gene expression in the test samples, respectively. They were calculated using the confidence level set in the analysis settings and the confidence level was set to one standard deviation (SD). These values were calculated using standard deviation as follows: […].
Candidate compounds were tested in stellate cells for their ability to modulate PNPLA3 and COL1A1. […] Changes in PNPLA3 (or COL1A1) mRNA levels in stellate cells were analyzed with qRT-PCR. Once compounds capable of downregulating PNPLA3 and/or COL1A1 were identified, additional compounds that are known to act in the same pathways were also tested. Transforming growth factor beta (TGF-beta) is known to induce fibrotic genes including COL1A1 in vitro, and was thus chosen as a positive control (i.e., positively regulate COL1A1 expression).

PNPLA3 [3] = assay: qRT-PCR of PNPLA3 mRNA in hepatic stellate cells; assay type: cell-based, human; details: for Effect on PNPLA3 mRNA levels in stellate cells: serial dilutions; for Relative PNPLA3 mRNA levels RQ: fold change vs DMSO
Experimental: as §1, §2
Candidate compounds were tested in stellate cells for their ability to modulate PNPLA3 and COL1A1. Stellate cells were treated with serial dilutions of the compounds, ranging from 0.1 μM to 100 μM. Changes in PNPLA3 (or COL1A1) mRNA levels in stellate cells were analyzed with qRT-PCR. Once compounds capable of downregulating PNPLA3 and/or COL1A1 were identified, additional compounds that are known to act in the same pathways were also tested. Transforming growth factor beta (TGF-beta) is known to induce fibrotic genes including COL1A1 in vitro, and was thus chosen as a positive control (i.e., positively regulate COL1A1 expression).

FLT3 = target: T1, FLT3 (Homo sapiens, UniProt P36888); details: cited from earlier work
T1 construct: IC50; other: FLT3
T1 sequence (P36888 1-993 D835Y): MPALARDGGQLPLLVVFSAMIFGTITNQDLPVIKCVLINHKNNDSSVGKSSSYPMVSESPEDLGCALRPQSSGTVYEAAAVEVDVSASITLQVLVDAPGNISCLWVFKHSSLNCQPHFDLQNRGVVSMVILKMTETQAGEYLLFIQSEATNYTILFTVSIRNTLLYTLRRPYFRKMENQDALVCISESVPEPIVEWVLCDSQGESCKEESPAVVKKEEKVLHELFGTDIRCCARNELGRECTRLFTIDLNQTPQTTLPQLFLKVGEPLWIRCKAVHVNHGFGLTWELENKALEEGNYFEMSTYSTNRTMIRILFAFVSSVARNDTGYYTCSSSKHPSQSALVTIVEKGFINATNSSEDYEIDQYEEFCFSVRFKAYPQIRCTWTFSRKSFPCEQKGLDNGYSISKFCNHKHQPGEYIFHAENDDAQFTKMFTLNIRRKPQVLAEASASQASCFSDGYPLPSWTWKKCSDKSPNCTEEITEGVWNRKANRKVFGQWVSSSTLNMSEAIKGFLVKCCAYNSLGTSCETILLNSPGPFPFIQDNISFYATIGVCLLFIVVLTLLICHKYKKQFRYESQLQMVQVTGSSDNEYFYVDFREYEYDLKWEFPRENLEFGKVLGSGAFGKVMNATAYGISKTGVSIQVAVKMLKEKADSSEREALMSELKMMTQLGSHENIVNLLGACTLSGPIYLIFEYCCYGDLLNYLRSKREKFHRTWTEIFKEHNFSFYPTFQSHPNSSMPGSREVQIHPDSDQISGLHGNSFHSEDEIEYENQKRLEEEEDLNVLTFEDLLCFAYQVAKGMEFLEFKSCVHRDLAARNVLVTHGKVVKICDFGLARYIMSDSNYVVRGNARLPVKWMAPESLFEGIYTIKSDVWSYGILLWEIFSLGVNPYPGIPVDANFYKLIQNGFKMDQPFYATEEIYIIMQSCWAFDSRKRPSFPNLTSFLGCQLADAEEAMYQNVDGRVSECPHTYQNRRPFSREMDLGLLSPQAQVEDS

[4] = target: stem cell growth factor receptor (SCFR or c-Kit) (Homo sapiens, UniProt P10721); details: cited from earlier work
PNPLA3 [5] = assay: RNA-seq of compound-treated primary human hepatocytes: PNPLA3 expression; assay type: cell-based
Experimental: (§6) Cryopreserved hepatocytes were cultured in plating media for 16 hours, transferred to maintenance media for 4 hours. Cultured on serum-free media for 2 hours, then a compound was added. The hepatocytes were maintained on the serum-free media for 16 hours prior to gene expression analysis.
as §5
Compound stocks were prepared at 1000× final concentration and added in a 2-step dilution to the medium to reduce risk of a compound precipitating out of solution when added to the cells, and to ensure reasonable pipetting volumes. One at a time, each compound was first diluted 10-fold in warm (about 37° C.) modified maintenance medium (initial dilution=ID), mixed by vortexing, and the ID was diluted 100-fold into the cell culture (e.g. 5.1 μl into 1 well of a 24-well plate containing 0.5 mL medium). The plate was mixed by carefully swirling and after all wells were treated and returned to the incubator overnight. If desired, separate plates/wells were treated with vehicle-only controls and/or positive controls. If using multi-well plates, controls were included on each plate. After about 18 hours, cells were harvested for further analysis, e.g., ChIP-seq, RNA-seq, ATAC-seq, etc.
The expression level of each gene was quantified with normalized FPKM (fragments per kilobase of exon per million mapped fragments). The differentially expressed genes were called using Cuffdiff v2.2.1 with q value <0.01 and log 2fold change >=1 or <=−1.
RNA-seq was performed to determine the effects of the compounds on PNPLA3 expression in hepatocytes. Fold change was calculated by dividing the level of expression in the cell system that had been perturbed by the level of expression in an unperturbed system. Changes in expression having a p-value ≤0.05 were considered significant.

[6] = target: Platelet-derived growth factor receptor alpha (PDGFRα) (Homo sapiens, UniProt P16234); details: cited from earlier work
PNPLA3 [7] = assay: In vivo compound testing in mice: PNPLA3 expression in liver (qRT-PCR); parameters: species or system mouse; details: wild-type mice, 50 mg/kg once daily oral gavage, four days
Experimental: (§3) A group of 6 mice (C57BL/6J strain), 3 male and 3 female, were administered with a candidate compound once daily via oral gavage for four consecutive days. Mice were sacrificed 4 hours post-last dose on the fourth day. Organs including liver, spleen, kidney, adipose, plasma were collected. Mouse liver tissues were pulverized in liquid nitrogen and aliquoted into small microtubes. TRIzol (Invitrogen Cat #15596026) was added to the tubes to facilitate cell lysis from tissue samples. The TRIzol solution containing the disrupted tissue was then centrifuged and the supernatant phase was collected. Total RNA was extracted from the supernatant using Qiagen RNA Extraction Kit (Qiagen Cat #74182) and the target mRNA levels were analyzed using qRT-PCR.
(§4) Candidate compounds were administered at an appropriate dose once daily to a group of wild-type mice consisting of 3 male and 3 female mice. Mice were sacrificed on the fourth day and liver tissue was collected and analyzed for PNPLA3 (or COL1A1) expression by qRT-PCR. […] When COL1A1 was analyzed, a stellate cell specific gene GFAP was used as a house-keeping control.

[8] = system: PNPLA3 (I148M mutation), HepG2 cells; assay: qRT-PCR of mutant PNPLA3 expression in HepG2 cells; assay type: cell-based
Experimental: HepG2 cells were plated in 24 well format at 100,000 cells per well in 500 μl DMEM. […] The following morning, the cells were harvested for RNA extraction.
Candidate compounds were evaluated in a PNPLA3 mutant cell line HepG2 to test their effects on mutant PNPLA3 expression. The HepG2 cells have the I148M mutation in PNPLA3. Changes in PNPLA3 expression in HepG2 cells were analyzed with qRT-PCR. PNPLA3 mRNA levels were normalized to the geometric mean of two internal controls, GUSB and B2M.

JNK = details: cited from earlier work
[9] = In vivo compound testing in mice: body weight, organ weight, other liver genes; parameters: species or system mouse; details: 50 mg/kg once daily, four days
Experimental: as §3, §4

PNPLA3 [10] = assay: qRT-PCR of PNPLA3 expression in mouse hepatocytes; assay type: cell-based
Experimental: Analysis of the fold changes in expression as measured by qRT-PCR were performed using the technique below. The control was DMSO, and the treatment was the selected compound (CPD). The internal control was GAPDH or B-Actin (or otherwise indicated), and the gene of interest is the target. First, the averages of the 4 conditions were calculated for normalization: DMSO:GAPDH, DMSO:Target, CPD: GAPDH, and CPD:Target. Next, the ΔCT of both control and treatment were calculated to normalize to internal control (GAPDH) using (DMSO:Target)−(DMSO:GAPDH)=ΔCT control and (CPD:Target)−(CPD: GAPDH)=ΔCT experimental. Then, the ΔΔCT was calculated by ΔCT experimental−ΔCT control.
Compounds were tested at concentrations ranging from 0.01 μM to 50 μM. […] PNPLA3 levels were normalized to the level of a house keeping gene ACTB.

COL1A1 [11] = assay: In vivo compound testing in mice: COL1A1 expression in liver (qRT-PCR); parameters: species or system mouse; details: wild-type mice, 50 mg/kg once daily oral gavage, four days, GFAP as house-keeping control
Experimental: as §3, §4

PNPLA5 = assay: RNA-seq of compound-treated primary human hepatocytes: PNPLA5 expression; assay type: cell-based
Experimental: as §6, §5
Compound stocks were prepared at 1000× final concentration and added in a 2-step dilution to the medium to reduce risk of a compound precipitating out of solution when added to the cells, and to ensure reasonable pipetting volumes. One at a time, each compound was first diluted 10-fold in warm (about 37° C.) modified maintenance medium (initial dilution=ID), mixed by vortexing, and the ID was diluted 100-fold into the cell culture (e.g. 5.1 μl into 1 well of a 24-well plate containing 0.5 mL medium). […]
The expression level of each gene was quantified with normalized FPKM (fragments per kilobase of exon per million mapped fragments). […]
Fold change was calculated by dividing the level of expression in the cell system that had been perturbed by the level of expression in an unperturbed system. […]

Sequence of Platelet-derived growth factor receptor alpha (PDGFRα) (P16234 593-954 limits assumed): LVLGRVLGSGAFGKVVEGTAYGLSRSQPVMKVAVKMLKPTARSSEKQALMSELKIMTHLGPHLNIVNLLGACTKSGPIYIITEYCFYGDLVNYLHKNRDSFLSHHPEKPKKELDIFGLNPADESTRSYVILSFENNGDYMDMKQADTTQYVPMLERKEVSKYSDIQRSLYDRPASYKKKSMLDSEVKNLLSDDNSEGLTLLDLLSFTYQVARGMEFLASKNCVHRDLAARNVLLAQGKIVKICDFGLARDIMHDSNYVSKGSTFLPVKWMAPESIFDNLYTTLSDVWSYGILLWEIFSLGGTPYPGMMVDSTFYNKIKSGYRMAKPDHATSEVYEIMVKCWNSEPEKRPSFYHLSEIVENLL
Sequence of stem cell growth factor receptor (SCFR or c-Kit) (P10721 whole entry D816H, form open): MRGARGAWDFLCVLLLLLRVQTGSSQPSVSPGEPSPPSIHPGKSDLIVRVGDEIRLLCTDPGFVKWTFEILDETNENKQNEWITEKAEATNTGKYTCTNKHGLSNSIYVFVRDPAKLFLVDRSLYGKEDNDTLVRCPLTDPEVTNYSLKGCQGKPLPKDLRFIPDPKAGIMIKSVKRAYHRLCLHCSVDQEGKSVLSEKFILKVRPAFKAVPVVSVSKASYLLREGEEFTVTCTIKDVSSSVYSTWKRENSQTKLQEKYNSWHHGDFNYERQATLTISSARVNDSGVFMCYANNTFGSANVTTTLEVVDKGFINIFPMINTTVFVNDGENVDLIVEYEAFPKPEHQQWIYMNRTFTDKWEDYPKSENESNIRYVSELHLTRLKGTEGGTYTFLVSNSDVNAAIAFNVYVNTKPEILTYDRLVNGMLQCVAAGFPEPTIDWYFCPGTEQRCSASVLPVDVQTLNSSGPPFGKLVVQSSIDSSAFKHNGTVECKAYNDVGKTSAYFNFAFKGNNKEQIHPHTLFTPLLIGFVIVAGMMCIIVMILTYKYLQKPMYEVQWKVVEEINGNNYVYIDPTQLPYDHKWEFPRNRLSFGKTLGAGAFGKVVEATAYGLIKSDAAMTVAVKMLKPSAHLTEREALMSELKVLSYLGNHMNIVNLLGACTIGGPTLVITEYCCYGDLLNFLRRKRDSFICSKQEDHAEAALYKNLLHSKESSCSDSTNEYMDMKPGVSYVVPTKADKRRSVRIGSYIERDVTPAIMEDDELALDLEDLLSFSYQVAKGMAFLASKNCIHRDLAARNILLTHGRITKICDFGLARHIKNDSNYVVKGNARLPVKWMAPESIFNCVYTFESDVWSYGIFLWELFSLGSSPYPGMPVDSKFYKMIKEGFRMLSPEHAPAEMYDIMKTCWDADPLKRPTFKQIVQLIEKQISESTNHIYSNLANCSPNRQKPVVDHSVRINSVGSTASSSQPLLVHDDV

Cc1cc(Nc2nc(N[C@@H](C)c3ncc(F)cn3)ncc2Cl)[nH]n1 [AZD1480]
Effect on PNPLA3 expression in human hepatocytes (PNPLA3 [1]): efficient downregulation

CN1CCN(S(=O)(=O)c2ccc(-c3cnc(N)c(C(=O)Nc4cccnc4)n3)cc2)CC1 [AZD2858]
Relative COLIA1 mRNA levels RQ (COL1A1 [2]; 1 μM): 0.83
Relative COLIA1 mRNA levels RQ (COL1A1 [2]; 10 μM): 0.72
Effect on COL1A1 expression in stellate cells (COL1A1 [2]): modestly decreased both PNPLA3 and COL1A1 in a dose dependent manner
Effect on PNPLA3 mRNA levels in stellate cells (PNPLA3 [3]): modestly decreased both PNPLA3 and COL1A1 in a dose dependent manner

S=C(NCc1ccc2c(c1)OCO2)N1CCN(c2ncnc3c2oc2ccccc23)CC1 [Amuvatinib]
IC50 (FLT3): 81 nM
IC50 [4]: 10 nM
PNPLA3 expression, Fold change (Log 2) vs untreated (PNPLA3 [5]): −0.52 Log 2
IC50 [6]: 40 nM

O=C1Nc2cc(Br)ccc2/C1=C1/Nc2ccccc2/C1=N\O [BIO]
Relative COLIA1 mRNA levels RQ (COL1A1 [2]; 1 μM): 0.74
Relative COLIA1 mRNA levels RQ (COL1A1 [2]; 10 μM): 0.59
Effect on COL1A1 expression in stellate cells (COL1A1 [2]): modestly decreased both PNPLA3 and COL1A1 in a dose dependent manner
Effect on PNPLA3 mRNA levels in stellate cells (PNPLA3 [3]): modestly decreased both PNPLA3 and COL1A1 in a dose dependent manner

COc1nc(N)nc2c1ncn2[C@@H]1O[C@H](COP(=O)(N[C@@H](C)C(=O)OCC(C)(C)C)Oc2cccc3ccccc23)[C@@H](O)[C@@]1(C)O (stereo partly shown) [BMS-986094]
PNPLA3 expression, Fold change (Log 2) vs untreated (PNPLA3 [5]): −0.69 Log 2

N#CCNC(=O)c1ccc(-c2ccnc(Nc3ccc(N4CCOCC4)cc3)n2)cc1 [Momelotinib, N-(cyanomethyl)-4-{2-[4-(morpholin-4-yl)anilino]pyrimidin-4-yl}benzamide]
Effect on COL1A1 expression in stellate cells (COL1A1 [2]): did not alter COL1A1 expression
Effect on PNPLA3 expression in human hepatocytes (PNPLA3 [1]): substantial decrease; also recorded: dose-dependent response
Effect on PNPLA3 mRNA levels in stellate cells (PNPLA3 [3]): reduced PNPLA3 mRNA levels in stellate cells in a dose-dependent manner
PNPLA3 expression in mouse liver (PNPLA3 [7]): reduced PNPLA3 significantly
Response of mutant PNPLA3 mRNA levels in HepG2 cells [8]: dose-dependent manner
IC50 (JNK): < 100 nM
Animal body weight, organ weight, other liver genes such as albumin, ASGR1, HAMP1 [9]: No change was observed

CNS(=O)(=O)C[C@H]1CC[C@H](N(C)c2ncnc3[nH]ccc23)CC1 [Oclacitinib]
Effect on PNPLA3 expression in human hepatocytes (PNPLA3 [1]): efficient downregulation

COc1ccc(-c2cc3c(C)nc(N)nc3n([C@H]3CC[C@H](OCCO)CC3)c2=O)cn1 [PF-04691502]
Relative PNPLA3 mRNA levels (PNPLA3 [10]; 1 μM): 0.21 ± 0.10

C1=C/COCc2cc(ccc2OCCN2CCCC2)Nc2nccc(n2)-c2cccc(c2)COC/1 [Pacritinib]
Effect on PNPLA3 expression in human hepatocytes (PNPLA3 [1]): substantial decrease

NS(=O)(=O)C#Cc1ccccc1 [Pifithrin-μ, 2-Phenylethynesulfonamide]
PNPLA3 expression, Fold change (Log 2) vs untreated (PNPLA3 [5]): −0.68 Log 2

CCC(=O)N1CCN(c2ccc(-n3c(=O)ccc4cnc5ccc(-c6cnc7ccccc7c6)cc5c43)cc2C(F)(F)F)CC1 [Torin 1]
Relative COL1A1 mRNA levels RQ (COL1A1 [2]; compound 0.01 μM): 0.29
Relative COL1A1 mRNA levels RQ (COL1A1 [2]; compound 0.1 μM): 0.41
Relative COL1A1 mRNA levels RQ (COL1A1 [2]; compound 1 μM): 0.43
Relative COL1A1 mRNA levels RQ (COL1A1 [2]; compound 10 μM): 0.36
Relative PNPLA3 mRNA levels (PNPLA3 [10]; 10 μM): 0.53 ± 0.25
Relative PNPLA3 mRNA levels RQ (PNPLA3 [3]; compound 0.01 μM): 0.34
Relative PNPLA3 mRNA levels RQ (PNPLA3 [3]; compound 0.1 μM): 0.65
Relative PNPLA3 mRNA levels RQ (PNPLA3 [3]; compound 1 μM): 0.99
Relative PNPLA3 mRNA levels RQ (PNPLA3 [3]; compound 10 μM): 2.39

CNC(=O)Nc1ccc(-c2nc(N3CC4CCC(C3)O4)c3cnn(C4CCC5(CC4)OCCO5)c3n2)cc1 [WYE-125132]
Effect on COL1A1 expression in stellate cells (COL1A1 [2]): decreased both PNPLA3 and COL1A1 in HSCs in a dose-dependent manner
Effect on PNPLA3 mRNA levels in stellate cells (PNPLA3 [3]): decreased both PNPLA3 and COL1A1 in HSCs in a dose-dependent manner
COL1A1 expression in mouse liver (COL1A1 [11]): reduced COL1A1 expression
PNPLA3 expression, Fold change (Log 2) vs untreated (PNPLA3 [5]): −0.86 Log 2

CN1C(=O)c2sccc2N(C)c2nc(Nc3ccc(S(N)(=O)=O)cc3)ncc21 [XMU-MP-1]
PNPLA3 expression, Fold change (Log 2) vs untreated (PNPLA3 [5]): −0.66 Log 2

Activin
Upregulation of PNPLA5 in the RNA-seq study (PNPLA5): best upregulators
Upregulation of PNPLA3 in the RNA-seq study (PNPLA3 [5]): best upregulators

B1: GDF2 (BMP9) (protein, UniProt Q9UK05 320-429, looked up)
Growth/differentiation factor …: SAGAGSHCQKTSLRVNFEDIGWDSWIIAPKEYEAYECKGGCFFPLADDVTPTKHAIVQTLVHLKFPTKVGKACCVPTKLSPISVLYKDDMGVPTLKYHYEGMSVAECGCR
Upregulation of PNPLA5 in the RNA-seq study (PNPLA5): best upregulators
Upregulation of PNPLA3 in the RNA-seq study (PNPLA3 [5]): best upregulators
